Measurements reported in ChEMBL document CHEMBL1149569, “Aminopyrrolidineamide inhibitors of site-1 protease” (Bioorg Med Chem Lett, 2007).

Biological target: T1, Membrane-bound transcription factor site-1 protease (Homo sapiens, UniProt Q14703)
T1 sequence (Q14703 whole entry): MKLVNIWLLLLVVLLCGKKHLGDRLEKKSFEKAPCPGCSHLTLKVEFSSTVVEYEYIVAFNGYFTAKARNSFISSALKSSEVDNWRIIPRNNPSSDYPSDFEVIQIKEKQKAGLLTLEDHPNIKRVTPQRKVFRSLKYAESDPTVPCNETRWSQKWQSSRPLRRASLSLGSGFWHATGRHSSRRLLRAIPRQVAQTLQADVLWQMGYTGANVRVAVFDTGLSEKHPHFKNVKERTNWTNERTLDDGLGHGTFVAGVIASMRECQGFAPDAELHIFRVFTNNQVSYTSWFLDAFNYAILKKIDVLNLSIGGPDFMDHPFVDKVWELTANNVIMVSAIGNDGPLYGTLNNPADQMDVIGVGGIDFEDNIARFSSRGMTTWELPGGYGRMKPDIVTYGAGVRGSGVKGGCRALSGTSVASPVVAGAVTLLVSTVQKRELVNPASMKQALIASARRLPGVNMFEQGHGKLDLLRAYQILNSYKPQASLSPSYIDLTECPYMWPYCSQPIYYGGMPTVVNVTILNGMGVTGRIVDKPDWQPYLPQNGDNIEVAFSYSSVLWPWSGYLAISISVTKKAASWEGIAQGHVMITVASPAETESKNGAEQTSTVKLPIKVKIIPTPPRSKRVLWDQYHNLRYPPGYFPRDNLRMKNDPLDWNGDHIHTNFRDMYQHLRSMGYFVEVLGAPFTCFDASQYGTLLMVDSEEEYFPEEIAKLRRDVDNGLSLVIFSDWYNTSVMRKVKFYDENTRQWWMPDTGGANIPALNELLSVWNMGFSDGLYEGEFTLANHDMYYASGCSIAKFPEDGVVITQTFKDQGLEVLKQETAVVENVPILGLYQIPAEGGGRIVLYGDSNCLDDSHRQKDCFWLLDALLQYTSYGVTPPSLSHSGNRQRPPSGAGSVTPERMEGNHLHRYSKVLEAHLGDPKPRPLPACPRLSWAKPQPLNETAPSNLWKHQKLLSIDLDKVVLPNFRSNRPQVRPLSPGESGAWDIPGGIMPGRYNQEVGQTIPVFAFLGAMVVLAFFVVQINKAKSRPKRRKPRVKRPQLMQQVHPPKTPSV
Assay: Inhibition of human S1P expressed in CHOK1 cells
Format: cell-based, CHO-K1

SMILES | IC50 [nM]
CC(C)Oc1ccc(C(=O)N(CCc2ccccc2Cl)C2CCN(C=O)C2)cc1 (centres undefined) | > 30000
CC(C)Oc1ccc(C(=O)N(CCc2ccccc2Cl)C2CCN(C)C2)cc1 (centres undefined) | > 30000
COc1ccccc1CCN(C(=O)c1ccc(CN[C@H]2CCCC[C@@H]2O)cc1)C1CCNC1 (some centres undefined) | 100
CC(C)Oc1ccc(C(=O)N(CCc2ccccc2Cl)C2CCNC2)cc1 (centres undefined) | 1400
CC(C)Oc1ccc(C(=O)N(CCc2ccccc2Cl)C2CCCNC2)cc1 (centres undefined) | > 30000
COc1ccccc1CCN(C(=O)c1ccc(CN2CC3CCC2C3)cc1)C1CCNC1 (centres undefined) | 95
CC(C)Oc1ccc(C(=O)N(CCc2ccccc2Cl)C2CCSC2)cc1 (centres undefined) | > 30000
COc1ccccc1CCN(C(=O)c1ccc(CN2CCCCC2)cc1)C1CCNC1 (centres undefined) | 250
Cc1ccccc1C1CCCN(Cc2ccc(C(=O)N(CCc3ccccc3Cl)C3CCNC3)cc2)C1 (centres undefined) | 8
COc1ccccc1CCN(C(=O)c1ccc(CN2CCCC(C(N)=O)C2)cc1)C1CCNC1 (centres undefined) | 160
CCN(CC)Cc1ccc(C(=O)N(CCc2c(Cl)cccc2Cl)C2CCNC2)cc1 (centres undefined) | 430
O=C(c1ccc(CN2CCCCC2)cc1)N(CCc1ccccc1Cl)C1CCOC1 (centres undefined) | > 30000
COc1ccccc1CCN(C(=O)c1ccc(OCc2ccccc2)cc1)C1CCNC1 (centres undefined) | 310
CC(C)Oc1ccc(C(=O)N(CCc2ccccc2Cl)C2CNC2)cc1 | > 30000
